Experimental data as given in patent publication US5559101A, “L-ribofuranosyl nucleosides” (priority 1994, dated 1996).
Values after ≈ are worked out from the molar mass of the structure shown. Read-outs that look alike come from different tables or passages of the source.

Tests used:
MCF-7 (breast) = experiment: Radiometric growth inhibition of tumor cells, MCF-7; format: cell-based, human; design: % SURVIVAL TUMOR: concentration or dose not given beside the values; conditions: MCF-7; for IC50: concentration required to kill 50%; for % SURVIVAL TUMOR: continuous exposure
Description: (§1) CELL LINES: Eight different established human cell lines CALU (lung), COLO320 (colon), H578St (breast), HT-29 (colon), MCF-7 (breast), OM-1 (colon), SKLU (lung) and SKMES(lung), and two control cell lines (bone marrow and/or fibroblast cells) were utilized. All cell lines were obtained from the Tumor Cloning Laboratory, Institute for Drug Development, Cancer Therapy and Research Center, San Antonio, Tex. All cell lines grew as monolayers in the appropriate culture medium supplemented with heat-inactivated calf serum. All reagents were obtained from Grand Island Biological Co., Grand Island, N.Y.
(§2) The iv formulations of the compounds of the present invention were prepared with sterile buffered saline and stored at -70° C. until required for testing.
(§3) Following trypsinization, tumor cells were suspended in tissue culture medium and exposed to the antitumor agents continuously at three different concentrations: 10, 1 and 0.1 μg/ml.
(§4) RADIOMETRIC MEASUREMENT OF GROWTH INHIBITION: Growth inhibition was assessed with the BACTEC System 460 (Johnston Laboratories, Towson, Md.) after addition of the antitumor agent to the cell in the respective growth medium containing ^14 C-glucose at a final concentration of 2 μCi/ml.
(§5) Two mls of the tumor cell suspension containing radioactive glucose were seeded into sterile, disposable 15 ml vials by injection through self-sealing rubber-aluminum caps. […] The seeded vials were then incubated at 37° C. Measurement of the release of ^14 CO2 resulting from the metabolism of ^14 C-glucose were performed on days 6, 9, 12 and 15 in the BACTEC instrument. This instrument flushes the ^14 CO2 containing air out of the vials into an ionization chamber that converts dpm to growth index values. […] Each data point represents triplicate values.
(§6) All compounds were dosed on an equimilimolar basis.

OM-1 (colon) = experiment: Radiometric growth inhibition of tumor cells, OM-1; format: cell-based, human; design: % SURVIVAL TUMOR: concentration or dose not given beside the values; conditions: for IC50: concentration required to kill 50%
Description: as §1, §2, §3, §4, §5, §6

HT29 (colon) = experiment: Radiometric growth inhibition of tumor cells, HT29; format: cell-based, human; design: % SURVIVAL TUMOR: concentration or dose not given beside the values; conditions: for IC50: concentration required to kill 50%
Description: as §1, §2, §3, §4, §5, §6

SKLU (lung) = experiment: Radiometric growth inhibition of tumor cells, SKLU; format: cell-based, human; design: % SURVIVAL TUMOR: concentration or dose not given beside the values; conditions: for IC50: concentration required to kill 50%
Description: as §1, §2, §3, §4, §5, §6

[1] = In vitro survival of bone marrow control cells (radiometric BACTEC); format: cell-based; design: concentration or dose not given beside the values
Description: as §1, §2, §3, §4, §5, §6

CALU (lung) = experiment: Radiometric growth inhibition of tumor cells, CALU; format: cell-based, human; design: % SURVIVAL TUMOR: concentration or dose not given beside the values; conditions: for IC50: Homo sapiens, concentration required to kill 50%, read-out: IC 50
Description: as §1, §2, §3, §4, §5, §6

COLO320 (colon) = experiment: Radiometric growth inhibition of tumor cells, COLO320; format: cell-based, human; conditions: for IC50: Homo sapiens, COLO 320, COLO320, concentration required to kill 50%, read-out: IC 50; for % SURVIVAL TUMOR: human, colo320 colon tumor cells
Description: as §1, §2, §3, §4, §5, §6

[2] = bone marrow control cells, continuous exposure, read-out: % SURVIVAL BONE MARROW
[3] = Homo sapiens, HT-29, HT29, read-out: IC 50
[4] = Homo sapiens, MCF7, read-out: IC 50
[5] = Homo sapiens, OM-1, read-out: IC 50
[6] = Homo sapiens, SKLU, read-out: IC 50

Molecule: 2'-Deoxy-β-L-5-fluorouridine
- IC50 (MCF-7 (breast)): 16.6
- IC50 (OM-1 (colon); OM-1): 62.9
- IC50 (HT29 (colon); HT29): 85.2
- IC50 (SKLU (lung); SKLU): 32.5

Molecule: O=C(OC[C@@H]1O[C@@H](n2ccc(=S)[nH]c2=O)[C@@H](OC(=O)c2ccccc2)[C@H]1OC(=O)c1ccccc1)c1ccccc1 [1-(2,3,5-Tri-O-benzoyl-α-L-ribofuranosyl)-4-thiouracil]
- viability [1, 2]: 85.9%
- % SURVIVAL TUMOR (HT29 (colon); HT29, continuous exposure): 75%
- IC50 (HT29 (colon); [3]): > 10 µg/mL

Molecule: O=c1ccn([C@@H]2CC[C@H](CO)O2)c(=O)[nH]1 [2',3'-β-L-dideoxy ribofuranosyl uracil, 2',3'-Dideoxy-β-L-uridine]
- % SURVIVAL TUMOR (CALU (lung); CALU, continuous exposure): 0.4%
- IC50 (CALU (lung); CALU): 0.623 µg/mL (≈ 2.94 µM)
- viability ([1]; bone marrow cells): 79.8%

Molecule: O=c1[nH]c(=O)n([C@@H]2C[C@@H](O)[C@H](CO)O2)cc1F [2'-Deoxy-β-L-5-fluorouridine]
- IC50 (MCF-7 (breast); [4]): 60.7 µg/mL (≈ 247 µM)
- % SURVIVAL TUMOR (MCF-7 (breast)): 86.9%
- IC50 (OM-1 (colon); [5]): 56.1 µg/mL (≈ 228 µM)
- % SURVIVAL TUMOR (OM-1 (colon); human, om-1 colon tumor cells): 85.2%
- viability ([1]; bone marrow cells): 109%
- % SURVIVAL TUMOR (HT29 (colon); HT29, continuous exposure): 42.5%
- IC50 (HT29 (colon); [3]): 8.46 µg/mL (≈ 34.4 µM)
- IC50 (COLO320 (colon)): 6.56 µg/mL (≈ 26.6 µM)
- % SURVIVAL TUMOR (COLO320 (colon)): 19.6%
- IC50 (SKLU (lung); [6]): 59.9 µg/mL (≈ 243 µM)
- % SURVIVAL TUMOR (SKLU (lung); human, sklu lung tumor cells): 86.2%

Molecule: Nc1ncnc2c1ncn2[C@@H]1C[C@@H](O)[C@H](CO)O1 [2'-β-L-deoxy ribofuranosyl adenine]
- IC50 (CALU (lung); CALU): 0.696 µg/mL (≈ 2.77 µM)
- % SURVIVAL TUMOR (CALU (lung); human, calu lung tumor cells): 28.9%
- viability ([1]; bone marrow cells): 64.9%

Molecule: O=c1[nH]cnc2c1ncn2[C@@H]1C[C@@H](O)[C@H](CO)O1 [2'-β-L-deoxy ribofuranosyl hypoxanthine, 2'-Deoxy-β-L-inosine]
- IC50 (OM-1 (colon); [5]): > 10 µg/mL
- % SURVIVAL TUMOR (OM-1 (colon); human, om-1 colon tumor cells): 83.1%
- viability ([1]; bone marrow cells): 110%

Molecule: Cc1cn([C@@H]2C[C@@H](O)[C@H](CO)O2)c(=O)[nH]c1=O [2'-β-L-deoxy ribofuranosyl thymine, 2'-Deoxy-β-L-thymidine]
- IC50 (OM-1 (colon); [5]): 6.5 µg/mL (≈ 26.8 µM)
- % SURVIVAL TUMOR (OM-1 (colon); human, om-1 colon tumor cells): 37.6%
- viability ([1]; bone marrow cells): 159%
- IC50 (HT29 (colon); [3]): 30.4 µg/mL (≈ 126 µM)
- % SURVIVAL TUMOR (HT29 (colon); human, ht29 colon tumor cells): 72.2%
- IC50 (COLO320 (colon)): 57.4 µg/mL (≈ 237 µM)
- % SURVIVAL TUMOR (COLO320 (colon)): 67.0%
- IC50 (SKLU (lung); [6]): 38.2 µg/mL (≈ 158 µM)
- % SURVIVAL TUMOR (SKLU (lung); human, sklu lung tumor cells): 72.4%

Molecule: O=c1[nH]c(=S)ccn1[C@@H]1C[C@@H](O)[C@H](CO)O1 [2'-β-L-deoxy ribofuranosyl-4-thiouracil, 2'-Deoxy-β-L-4-thiouridine]
- IC50 (OM-1 (colon); [5]): 34.3 µg/mL (≈ 140 µM)
- % SURVIVAL TUMOR (OM-1 (colon); OM-1, continuous exposure): 82.3%
- viability [1, 2]: 98.2%
- IC50 (SKLU (lung); [6]): > 10 µg/mL
- % SURVIVAL TUMOR (SKLU (lung); SKLU, continuous exposure): 79.4%

Molecule: NC1=N[C@@H]2O[C@@H](CO)[C@H](O)[C@@H]2O1 [2-Amino-α-L-ribofurano[1',2':4,5]oxazoline]
- IC50 (OM-1 (colon); [5]): 0.026 µg/mL (≈ 0.149 µM)
- % SURVIVAL TUMOR (OM-1 (colon); OM-1, continuous exposure): 2.6%
- viability [1, 2]: 115%

Molecule: NC1=N[C@H]2O[C@@H](CO)[C@H](O)[C@H]2O1 [2-Amino-β-L-arabinofurano[1',2':4,5]oxazoline]
- IC50 (MCF-7 (breast); [4]): 187 µg/mL (≈ 1070 µM)
- % SURVIVAL TUMOR (MCF-7 (breast)): 88.8%
- IC50 (OM-1 (colon); [5]): 5 µg/mL (≈ 28.7 µM)
- % SURVIVAL TUMOR (OM-1 (colon); OM-1, continuous exposure): 41.3%
- % SURVIVAL TUMOR (CALU (lung); CALU, continuous exposure): 89%
- IC50 (CALU (lung); CALU): 44.6 µg/mL (≈ 256 µM)
- viability [1, 2]: 110%

Molecule: O=C(OC[C@@H]1O[C@H](n2ccc(=S)[nH]c2=O)C[C@H]1OC(=O)c1ccccc1)c1ccccc1 [3',5'-Di-O-benzoyl-2'deoxy-4-thio β-L-uridine]
- IC50 (MCF-7 (breast); [4]): > 10 µg/mL
- % SURVIVAL TUMOR (MCF-7 (breast)): 84.5%
- IC50 (OM-1 (colon); [5]): 0.98 µg/mL (≈ 2.17 µM)
- % SURVIVAL TUMOR (OM-1 (colon); OM-1, continuous exposure): 35.7%
- viability [1, 2]: 102%
- IC50 (SKLU (lung); [6]): 88.7 µg/mL (≈ 196 µM)
- % SURVIVAL TUMOR (SKLU (lung); SKLU, continuous exposure): 77.7%
